Results as given in article PMC6207642, “Real Time Monitoring of NADPH Concentrations in Corynebacterium glutamicum and Escherichia coli via the Genetically Encoded Sensor mBFP” (Frontiers in Microbiology, 2018).

Legend:
mBFP [1] = system: T1, mBFP; assay: photometric benzaldehyde reductase assay, Michaelis-Menten fit; type: biochemical, uncultured bacterium; details: phosphate buffer pH 8, 30 °C
T1 construct: no tag mentioned; codon-optimized gene (amplicon 780 bp) used only in cells

mBFP [2] = biological target: T1, mBFP; assay: thermal shift (SYPRO Orange), concentration dependence; type: binding, uncultured bacterium; details: NADPH 0-10 mM; 40 to 70 °C in 0.5 °C steps

Compound	Km (mBFP [1]; 200 μM NADPH, benzaldehyde 0.5-12.5 mM)	Kd (mBFP [2])	Km (mBFP [1]; 12.5 mM benzaldehyde, NADPH 0.5-180 μM)
O=Cc1ccccc1 [benzaldehyde]	3.1 mM	–	–
NC(=O)C1=CN([C@@H]2O[C@H](COP(=O)(O)OP(=O)(O)OC[C@H]3O[C@@H](n4cnc5c(N)ncnc54)[C@H](OP(=O)(O)O)[C@@H]3O)[C@@H](O)[C@H]2O)C=CC1 [NADPH]	–	640 µM	0.041 mM
